Reference: patent publication US20230085307A1, “PYRIDAZINONE COMPOUND AND HERBICIDE” (NISSAN CHEMICAL CORPORATION, priority 2019, published 2023)

Tests used:
Chinese sprangletop = test: Test Example 3: herbicidal effect by foliage application, Wagner pot (Table 18, symbol D); type: in vivo, chinese sprangletop (Leptochloa chinensis)
How it was run: (§1)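 Plants were sown in alluvial soil held under 0.1–0.5 cm standing water and grown 14 days in a greenhouse at 25–30 °C. An emulsifiable formulation, water-diluted to the set dose, was then sprayed onto the foliage, and effects were scored three weeks later using previously defined criteria.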

rice flat sedge = test: Test Example 3: herbicidal effect by foliage application, Wagner pot (Table 18, symbol E); type: in vivo, rice flat sedge (Cyperus iria)
How it was run: as §1

lambsquarters [1] = test: Test Example 4: herbicidal effect by soil treatment (Table 19, symbol O); type: in vivo, lambsquarters (Chenopodium album); conditions: amount of applied herbicide 320 g/ha
How it was run: (§2)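 Herbicidal effect was rated 3 weeks after treatment, using the scoring criteria of an earlier test. The compound, formulated as an emulsion and diluted in water to a set herbicide amount, had been sprayed uniformly on soil over freshly sown seeds. Growth took place in a greenhouse at 25° C. to 30° C.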

barnyard grass [2] = test: Test Example 4: herbicidal effect by soil treatment (Table 19, symbol H); type: in vivo, barnyard grass (Echinochloa crus-galli); conditions: amount of applied herbicide 320 g/ha
How it was run: as §2

persian speedwell [3] = test: Test Example 5: herbicidal effect by foliage application, plastic box (Table 20, symbol R); type: in vivo, Persian speedwell (Veronica persica); conditions: foliage application
How it was run: (§3)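 Foliar spray test: emulsion formulation diluted in water to a set application rate, sprayed onto 14-day-old plants raised in diluvial soil at 25° C to 30° C under glass. Both herbicidal effect and crop effect rated visually three weeks later.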

green foxtail [4] = test: Test Example 4: herbicidal effect by soil treatment (Table 19, symbol G); type: in vivo, green foxtail (Setaria viridis); conditions: amount of applied herbicide 320 g/ha
How it was run: as §2

chickweed [5] = test: Test Example 5: herbicidal effect by foliage application, plastic box (Table 20, symbol P); type: in vivo, common chickweed (Stellaria media); conditions: foliage application
How it was run: as §3

redroot pigweed [6] = test: Test Example 5: herbicidal effect by foliage application, plastic box (Table 20, symbol N); type: in vivo, redroot pigweed (Amaranthus retroflexus); conditions: foliage application
How it was run: as §3

barnyard grass [7] = test: Test Example 5: herbicidal effect by foliage application, plastic box (Table 20, symbol H); type: in vivo, barnyard grass (Echinochloa crus-galli); conditions: foliage application
How it was run: as §3

persian speedwell [8] = test: Test Example 4: herbicidal effect by soil treatment (Table 19, symbol R); type: in vivo, Persian speedwell (Veronica persica); conditions: amount of applied herbicide 320 g/ha
How it was run: as §2

velvetleaf [9] = test: Test Example 5: herbicidal effect by foliage application, plastic box (Table 20, symbol M); type: in vivo, velvetleaf (Abutilon theophrasti); conditions: foliage application
How it was run: as §3

wild oat [10] = test: Test Example 4: herbicidal effect by soil treatment (Table 19, symbol I); type: in vivo, wild oat (Avena fatua); conditions: amount of applied herbicide 320 g/ha
How it was run: as §2

Italian ryegrass [11] = test: Test Example 5: herbicidal effect by foliage application, plastic box (Table 20, symbol K); type: in vivo, Italian ryegrass (Lolium multiflorum); conditions: foliage application
How it was run: as §3

lambsquarters [12] = test: Test Example 5: herbicidal effect by foliage application, plastic box (Table 20, symbol O); type: in vivo, lambsquarters (Chenopodium album); conditions: foliage application
How it was run: as §3

velvetleaf [13] = test: Test Example 4: herbicidal effect by soil treatment (Table 19, symbol M); type: in vivo, velvetleaf (Abutilon theophrasti); conditions: amount of applied herbicide 320 g/ha
How it was run: as §2

redroot pigweed [14] = test: Test Example 4: herbicidal effect by soil treatment (Table 19, symbol N); type: in vivo, redroot pigweed (Amaranthus retroflexus); conditions: amount of applied herbicide 320 g/ha
How it was run: as §2

southern crabgrass [15] = test: Test Example 4: herbicidal effect by soil treatment (Table 19, symbol F); type: in vivo, southern crabgrass (Digitaria ciliaris); conditions: amount of applied herbicide 320 g/ha
How it was run: as §2

Japanese bulrush = test: Test Example 1: herbicidal activity, application before weed generation under submerged conditions (Table 16, symbol B); type: in vivo, Japanese bulrush (Schoenoplectus juncoides)
How it was run: (§4)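 Emulsion formulation, water-diluted to set dose, was put onto the flooded surface (4 cm depth, alluvial soil) the same day weeds were sown and 2.5-leaf rice transplanted. After 3 weeks at 25-30 °C under glass, each species was rated 0 (≤5% kill) to 5 (≥90% kill).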

wild oat [16] = test: Test Example 5: herbicidal effect by foliage application, plastic box (Table 20, symbol I); type: in vivo, wild oat (Avena fatua); conditions: foliage application
How it was run: as §3

southern crabgrass [17] = test: Test Example 5: herbicidal effect by foliage application, plastic box (Table 20, symbol F); type: in vivo, southern crabgrass (Digitaria ciliaris); conditions: foliage application
How it was run: as §3

green foxtail [18] = test: Test Example 5: herbicidal effect by foliage application, plastic box (Table 20, symbol G); type: in vivo, green foxtail (Setaria viridis); conditions: foliage application
How it was run: as §3

Italian ryegrass [19] = test: Test Example 4: herbicidal effect by soil treatment (Table 19, symbol K); type: in vivo, Italian ryegrass (Lolium multiflorum); conditions: amount of applied herbicide 320 g/ha
How it was run: as §2

blackgrass [20] = test: Test Example 5: herbicidal effect by foliage application, plastic box (Table 20, symbol J); type: in vivo, blackgrass (Alopecurus myosuroides); conditions: foliage application
How it was run: as §3

windgrass [21] = test: Test Example 4: herbicidal effect by soil treatment (Table 19, symbol L); type: in vivo, windgrass (Apera spica-venti); conditions: amount of applied herbicide 320 g/ha
How it was run: as §2

barnyard grass [22] = test: Test Example 3: herbicidal effect by foliage application, Wagner pot (Table 18, symbol H); type: in vivo, barnyard grass (Echinochloa crus-galli)
How it was run: as §1

oval-leafed pondweed = test: Test Example 1: herbicidal activity, application before weed generation under submerged conditions (Table 16, symbol C); type: in vivo, oval-leafed pondweed (Monochoria vaginalis)
How it was run: as §4

windgrass [23] = test: Test Example 5: herbicidal effect by foliage application, plastic box (Table 20, symbol L); type: in vivo, windgrass (Apera spica-venti); conditions: foliage application
How it was run: as §3

late watergrass = test: Test Example 1: herbicidal activity, application before weed generation under submerged conditions (Table 16, symbol A); type: in vivo, late watergrass (Echinochloa oryzicola)
How it was run: as §4

chickweed [24] = test: Test Example 4: herbicidal effect by soil treatment (Table 19, symbol P); type: in vivo, common chickweed (Stellaria media); conditions: amount of applied herbicide 320 g/ha
How it was run: as §2

blackgrass [25] = test: Test Example 4: herbicidal effect by soil treatment (Table 19, symbol J); type: in vivo, blackgrass (Alopecurus myosuroides); conditions: amount of applied herbicide 320 g/ha
How it was run: as §2

[26] = amount of applied herbicide 320 g/ha
[27] = AAH 320 g/ha, evaluated three weeks after application
[28] = 320 g/ha, three weeks after application

## CCCC(=O)Oc1c(C)nn(C)c(=O)c1-c1c(-c2ccc3c(c2)OC(F)(F)O3)sc2ccc(F)cc12 [2-393]
Chinese sprangletop; [26]
  herbicidal effect on D: Chinese sprangletop: 1 (Herbicidal rate of 5% or more and less than 20%)
Rice flat sedge; [26]
  herbicidal effect on E: rice flat sedge: 3 (Herbicidal rate of 40% or more and less than 70%)
Lambsquarters [1]
  herbicidal effect, O: lambsquarters: 0 (Herbicidal rate of 5% or less (almost no effect))
Barnyard grass [2]
  herbicidal effect, H: barnyard grass: 0 (Herbicidal rate of 5% or less (almost no effect))
Persian speedwell [3]; [27]
  R: persian speedwell, herbicidal effect (criteria 0-5): 5 (Herbicidal rate of 90% or more (almost completely withered))
Green foxtail [4]
  herbicidal effect, G: green foxtail: 0 (Herbicidal rate of 5% or less (almost no effect))
Chickweed [5]; [27]
  P: chickweed, herbicidal effect (criteria 0-5): 5 (Herbicidal rate of 90% or more (almost completely withered))
Redroot pigweed [6]; [27]
  N: redroot pigweed, herbicidal effect (criteria 0-5): 4 (Herbicidal rate of 70% or more and less than 90%)
Barnyard grass [7]; [27]
  H: barnyard grass, herbicidal effect (criteria 0-5): 5 (Herbicidal rate of 90% or more (almost completely withered))
Persian speedwell [8]
  herbicidal effect, R: persian speedwell: 4 (Herbicidal rate of 70% or more and less than 90%)
Velvetleaf [9]; [27]
  M: velvetleaf, herbicidal effect (criteria 0-5): 4 (Herbicidal rate of 70% or more and less than 90%)
Wild oat [10]
  herbicidal effect, I: wild oat: 0 (Herbicidal rate of 5% or less (almost no effect))
Italian ryegrass [11]; [27]
  K: Italian ryegrass, herbicidal effect (criteria 0-5): 4 (Herbicidal rate of 70% or more and less than 90%)
Lambsquarters [12]; [27]
  O: lambsquarters, herbicidal effect (criteria 0-5): 4 (Herbicidal rate of 70% or more and less than 90%)
Velvetleaf [13]
  herbicidal effect, M: velvetleaf: 0 (Herbicidal rate of 5% or less (almost no effect))
Redroot pigweed [14]
  herbicidal effect, N: redroot pigweed: 0 (Herbicidal rate of 5% or less (almost no effect))
Southern crabgrass [15]
  herbicidal effect, F: southern crabgrass: 0 (Herbicidal rate of 5% or less (almost no effect))
Japanese bulrush; [26]
  Herbicidal effect, B: Japanese bulrush: 0 (Herbicidal rate of 5% or less (almost no effect))
Wild oat [16]; [27]
  I: wild oat, herbicidal effect (criteria 0-5): 4 (Herbicidal rate of 70% or more and less than 90%)
Southern crabgrass [17]; [27]
  F: southern crabgrass, herbicidal effect (criteria 0-5): 1 (Herbicidal rate of 5% or more and less than 20%)
Green foxtail [18]; [27]
  G: green foxtail, herbicidal effect (criteria 0-5): 4 (Herbicidal rate of 70% or more and less than 90%)
Italian ryegrass [19]
  herbicidal effect, K: Italian ryegrass: 4 (Herbicidal rate of 70% or more and less than 90%)
Blackgrass [20]; [27]
  J: blackgrass, herbicidal effect (criteria 0-5): 1 (Herbicidal rate of 5% or more and less than 20%)
Windgrass [21]
  herbicidal effect, L: windgrass: 5 (Herbicidal rate of 90% or more (almost completely withered))
Barnyard grass [22]; [26]
  herbicidal effect on H: barnyard grass: 5 (Herbicidal rate of 90% or more (almost completely withered))
oval-leafed pondweed; [26]
  Herbicidal effect, C: oval-leafed pondweed: 0 (Herbicidal rate of 5% or less (almost no effect))
Windgrass [23]; [27]
  L: windgrass, herbicidal effect (criteria 0-5): 5 (Herbicidal rate of 90% or more (almost completely withered))
Late watergrass; [26]
  Herbicidal effect, A: late watergrass: 3 (Herbicidal rate of 40% or more and less than 70%)
Chickweed [24]
  herbicidal effect, P: chickweed: 4 (Herbicidal rate of 70% or more and less than 90%)

## CCOc1ccccc1-c1sc2ccccc2c1-c1c(O)c(C)nn(C)c1=O [1-011]
Chinese sprangletop; 320 g/ha
  herbicidal effect on D (Chinese sprangletop), rating 0-5: 3 (Herbicidal rate of 40% or more and less than 70%)
Rice flat sedge; 320 g/ha
  herbicidal effect on E (rice flat sedge), rating 0-5: 5 (Herbicidal rate of 90% or more (almost completely withered))
Lambsquarters [1]
  herbicidal effect rating, O: lambsquarters: 4 (Herbicidal rate of 70% or more and less than 90%)
Barnyard grass [2]
  herbicidal effect rating, H: barnyard grass: 5 (Herbicidal rate of 90% or more (almost completely withered))
Persian speedwell [3]; [28]
  herbicidal effect grade, R: persian speedwell: 5 (Herbicidal rate of 90% or more (almost completely withered))
Green foxtail [4]
  herbicidal effect rating, G: green foxtail: 5 (Herbicidal rate of 90% or more (almost completely withered))
Blackgrass [25]
  herbicidal effect rating, J: blackgrass: 4 (Herbicidal rate of 70% or more and less than 90%)
Chickweed [5]; [28]
  herbicidal effect grade, P: chickweed: 5 (Herbicidal rate of 90% or more (almost completely withered))
Redroot pigweed [6]; [28]
  herbicidal effect grade, N: redroot pigweed: 5 (Herbicidal rate of 90% or more (almost completely withered))
Barnyard grass [7]; [28]
  herbicidal effect grade, H: barnyard grass: 5 (Herbicidal rate of 90% or more (almost completely withered))
Persian speedwell [8]
  herbicidal effect rating, R: persian speedwell: 5 (Herbicidal rate of 90% or more (almost completely withered))
Velvetleaf [9]; [28]
  herbicidal effect grade, M: velvetleaf: 3 (Herbicidal rate of 40% or more and less than 70%)
Wild oat [10]
  herbicidal effect rating, I: wild oat: 2 (Herbicidal rate of 20% or more and less than 40%)
Italian ryegrass [11]; [28]
  herbicidal effect grade, K: Italian ryegrass: 4 (Herbicidal rate of 70% or more and less than 90%)
Lambsquarters [12]; [28]
  herbicidal effect grade, O: lambsquarters: 2 (Herbicidal rate of 20% or more and less than 40%)
Velvetleaf [13]
  herbicidal effect rating, M: velvetleaf: 0 (Herbicidal rate of 5% or less (almost no effect))
Redroot pigweed [14]
  herbicidal effect rating, N: redroot pigweed: 4 (Herbicidal rate of 70% or more and less than 90%)
Southern crabgrass [15]
  herbicidal effect rating, F: southern crabgrass: 3 (Herbicidal rate of 40% or more and less than 70%)
Japanese bulrush; 320 g/ha applied herbicide
  Herbicidal effect on B: Japanese bulrush (grade 0-5): 0 (Herbicidal rate of 5% or less (almost no effect))
Wild oat [16]; [28]
  herbicidal effect grade, I: wild oat: 4 (Herbicidal rate of 70% or more and less than 90%)
Southern crabgrass [17]; [28]
  herbicidal effect grade, F: southern crabgrass: 5 (Herbicidal rate of 90% or more (almost completely withered))
Green foxtail [18]; [28]
  herbicidal effect grade, G: green foxtail: 5 (Herbicidal rate of 90% or more (almost completely withered))
Italian ryegrass [19]
  herbicidal effect rating, K: Italian ryegrass: 3 (Herbicidal rate of 40% or more and less than 70%)
Blackgrass [20]; [28]
  herbicidal effect grade, J: blackgrass: 5 (Herbicidal rate of 90% or more (almost completely withered))
Barnyard grass [22]; 320 g/ha
  herbicidal effect on H (barnyard grass), rating 0-5: 5 (Herbicidal rate of 90% or more (almost completely withered))
oval-leafed pondweed; 320 g/ha applied herbicide
  Herbicidal effect on C: oval-leafed pondweed (grade 0-5): 0 (Herbicidal rate of 5% or less (almost no effect))
Windgrass [23]; [28]
  herbicidal effect grade, L: windgrass: 4 (Herbicidal rate of 70% or more and less than 90%)
Late watergrass; 320 g/ha applied herbicide
  Herbicidal effect on A: late watergrass (grade 0-5): 5 (Herbicidal rate of 90% or more (almost completely withered))
Chickweed [24]
  herbicidal effect rating, P: chickweed: 5 (Herbicidal rate of 90% or more (almost completely withered))
